Measurements from patent US20140343008A1, “HEPATITIS C TREATMENT” (Gilead Pharmasset LLC, priority 2013, published 2014).
Read-outs that look alike come from different tables or passages of the source. Values belong to the compound of their own block, whether it stands above or below them.

Legend:
[1] = system: human colon carcinoma cell line (caco-2); experiment: Bidirectional permeability of sofosbuvir in caco-2 monolayers; conditions: for Papp of sofosbuvir, Forward, Average / Papp of sofosbuvir, Forward, Repat 2 / Papp of sofosbuvir, Forward, Repeat 1 / Papp of sofosbuvir, Reverse, Average / Papp of sofosbuvir, Reverse, Repat 2 / Papp of sofosbuvir, Reverse, Repeat 1 / effect of coincubation on permeability/efflux of sofosbuvir, fold increase: human, Caco-2, 120 min, pH 7.4
Experimental: (§1) Caco-2 human intestinal epithelial cell monolayers cultured for twenty-one to twenty-eight days were plated on 12 well Transwell® dual chamber plates.
(§2) Assays were run in duplicate (n=2) in one to two separate experiments. Assay buffer at pH 7.4 was placed in both chambers. Hanks buffer with 1% BSA was used in receiver compartment.
(§3) Apical side was dosed for apical-to-basolateral (A to B) assessment. Basolateral side was dosed for basolateral-to-apical (B to A) assessment. Donor side was sampled at time points of 0 and 120 minutes.
(§4) Receiver side was sampled at time points: 60 and 120 minutes.
(§5) The apparent permeability, Papp, and % recovery were calculated as follows: […]
(§6) Where, dR/dt is the slope of the cumulative concentration in the receiver compartment versus time in μM/s based on receiver concentrations measured at 60 and 120 minutes. Vr and Vd are the volumes in the receiver and donor compartment in cm^3, respectively. A is the area of the cell monolayer (1.12 cm^2). D0 and D120 are the measured donor concentrations at the beginning and end of the experiment, respectively. R120 is the receiver concentration at the end of the experiment (120 minutes).

[2] = Phase I pharmacokinetic study of the combination of Compound I and sofosbuvir in healthy volunteers; assay type: in vivo, human; conditions: for AUC(0-inf) / Cmax / AUC(0-t) / AUC: both sexes, human; for AUC(0-inf): healthy volunteers, read-out: AUCinf, Mean; for AUC(0-inf) / Cmax / AUC(0-t) / Ctau, Mean / AUC: n = 18; for AUC(0-t): read-out: AUClast, Mean; for AUC: read-out: AUCtau, Mean
Source text: This example studied the pharmacokinetics (PK) of the combination of Compound I and sofosbuvir (SOF), along with two metabolites of SOF, Metabolite I and II, in healthy volunteers, as part of a Phase I clinical study for Compound I.
This was a randomized, open label, single-center, multiple-dose study that enrolled Healthy males and non-pregnant, non-lactating females from 18 to 45 years old. The duration of the study was up to 38 days, and duration of the treatment was 28 days.
Additional specific exclusion criteria included, (1) use of over the counter (OTC) or prescribed medications that affect gastric pH (i.e., antacids, H2 receptor antagonists (H2RAs), and/or proton-pump inhibitors (PPIs)) 28 days prior to baseline and (2) history of severe peptic ulcer disease, GERD, or other stomach acid diseases requiring prolonged (>6 months) medication or surgical therapy to modify gastric pH. […]
Plasma concentrations and pharmacokinetic parameters for the compounds were listed and summarized using descriptive statistics by treatment. In addition, an analysis of variance (ANOVA) using a mixed-effects model with treatment, period, sequence as fixed effects and subject within sequence as a random effect were fitted to the natural logarithmic transformation of PK parameters (AUCinf, AUClast, and Cmax).
The 90% confidence intervals were constructed for the ratio of geometric least-squares means of primary PK parameters for each of the test treatments (as shown in Table 1).

[3] = Bidirectional permeability of sofosbuvir in caco-2 monolayers; conditions: human, Caco-2, pH 7.4
Experimental: as §1, §2, §3, §4, §5, §6

P-gp = P-gp (Homo sapiens, UniProt P08183); experiment: In vitro drug transporter inhibition, P-gp; assay type: in vitro ADME
Sequence of P-gp (P08183 whole entry): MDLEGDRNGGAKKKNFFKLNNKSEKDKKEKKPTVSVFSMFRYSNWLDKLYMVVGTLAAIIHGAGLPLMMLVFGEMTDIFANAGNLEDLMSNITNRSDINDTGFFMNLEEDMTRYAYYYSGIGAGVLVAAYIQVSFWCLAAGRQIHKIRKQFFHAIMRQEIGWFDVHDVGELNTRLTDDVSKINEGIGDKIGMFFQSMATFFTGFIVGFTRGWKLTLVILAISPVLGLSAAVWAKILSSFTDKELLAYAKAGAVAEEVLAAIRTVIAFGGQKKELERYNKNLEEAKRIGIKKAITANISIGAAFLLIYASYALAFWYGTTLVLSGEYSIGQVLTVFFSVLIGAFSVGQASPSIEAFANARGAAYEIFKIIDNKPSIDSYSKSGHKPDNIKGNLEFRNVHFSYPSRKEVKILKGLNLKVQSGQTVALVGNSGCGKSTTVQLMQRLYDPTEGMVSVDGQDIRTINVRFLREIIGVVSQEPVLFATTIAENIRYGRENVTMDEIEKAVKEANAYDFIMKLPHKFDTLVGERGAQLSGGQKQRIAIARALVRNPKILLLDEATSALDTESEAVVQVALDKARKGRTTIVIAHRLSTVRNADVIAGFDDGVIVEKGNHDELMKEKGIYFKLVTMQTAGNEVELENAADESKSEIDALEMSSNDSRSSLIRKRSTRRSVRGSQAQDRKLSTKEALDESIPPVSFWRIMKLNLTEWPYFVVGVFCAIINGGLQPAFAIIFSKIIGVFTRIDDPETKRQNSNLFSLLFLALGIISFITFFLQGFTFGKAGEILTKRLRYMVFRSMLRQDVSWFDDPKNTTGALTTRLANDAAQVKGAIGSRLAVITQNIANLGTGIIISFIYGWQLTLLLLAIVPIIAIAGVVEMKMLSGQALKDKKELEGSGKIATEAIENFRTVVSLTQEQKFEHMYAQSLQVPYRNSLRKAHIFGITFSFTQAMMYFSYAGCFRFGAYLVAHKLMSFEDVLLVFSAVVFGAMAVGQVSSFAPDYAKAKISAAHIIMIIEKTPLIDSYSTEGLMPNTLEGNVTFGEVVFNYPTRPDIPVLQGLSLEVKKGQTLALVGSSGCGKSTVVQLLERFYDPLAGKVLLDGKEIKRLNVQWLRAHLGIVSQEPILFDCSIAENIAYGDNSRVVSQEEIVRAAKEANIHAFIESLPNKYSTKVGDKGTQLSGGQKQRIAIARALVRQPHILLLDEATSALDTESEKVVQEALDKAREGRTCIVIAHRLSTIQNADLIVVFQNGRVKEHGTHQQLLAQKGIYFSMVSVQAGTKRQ
Source text: (§7) Based on the results of Example 1, it was contemplated that Compound I increased the exposure of sofosbuvir by inhibiting the activities of one or more drug transporters. This example carried out in vitro experiments to test whether Compound I inhibited any of the potentially relevant drug transporters, […], BCRP and P-gp.

BCRP = target: T1, BCRP (Homo sapiens, UniProt Q9UNQ0); experiment: In vitro drug transporter inhibition, BCRP; assay type: in vitro ADME
T1 sequence (Q9UNQ0 1-655): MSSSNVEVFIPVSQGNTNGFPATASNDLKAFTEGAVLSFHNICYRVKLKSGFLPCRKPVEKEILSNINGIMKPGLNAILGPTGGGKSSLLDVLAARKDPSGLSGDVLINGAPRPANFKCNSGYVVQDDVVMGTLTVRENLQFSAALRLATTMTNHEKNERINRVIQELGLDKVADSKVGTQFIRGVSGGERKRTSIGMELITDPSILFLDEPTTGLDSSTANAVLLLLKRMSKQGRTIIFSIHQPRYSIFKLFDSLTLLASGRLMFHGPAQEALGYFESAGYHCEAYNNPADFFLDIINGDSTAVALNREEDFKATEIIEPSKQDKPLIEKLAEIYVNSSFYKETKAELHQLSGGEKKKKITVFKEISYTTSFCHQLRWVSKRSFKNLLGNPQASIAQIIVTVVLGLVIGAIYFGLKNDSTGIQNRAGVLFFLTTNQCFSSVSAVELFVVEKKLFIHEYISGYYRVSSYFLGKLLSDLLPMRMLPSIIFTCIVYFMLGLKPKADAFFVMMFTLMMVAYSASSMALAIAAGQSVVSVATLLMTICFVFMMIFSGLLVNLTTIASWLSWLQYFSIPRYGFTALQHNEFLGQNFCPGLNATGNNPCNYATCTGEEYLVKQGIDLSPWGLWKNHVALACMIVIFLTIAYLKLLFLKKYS
Source text: as §7

[4] = in vivo, plasma analyte after SOF + Comp I
[5] = in vivo, plasma analyte after SOF alone
[6] = co-administration with Compound I versus SOF alone
[7] = SOF + Comp I versus Comp I alone
[8] = plasma, oral, 100 mg, Comp I alone

Compound: CC(C)OC(=O)[C@H](C)N[P@](=O)(OC[C@H]1O[C@@H](n2ccc(=O)[nH]c2=O)[C@](C)(F)[C@@H]1O)Oc1ccccc1 [Sofosbuvir, (S)-isopropyl 2-(((S)-(((2R,3R,4R,5R)-5-(2,4-dioxo-3,4-dihydropyrimidin-1(2H)-yl)-4-fluoro-3-hydroxy-4-methyltetrahydrofuran-2-yl)methoxy)(phenoxy)phosphoryl)amino)propanoate]
- AUCinf, % GMR ([2]; SOF + Comp I versus SOF alone): 238%
- AUClast, % GMR ([2]; SOF + Comp I versus SOF alone): 238%
- Cmax, % GMR ([2]; SOF + Comp I versus SOF alone): 181%
- AUC(0-inf) ([2]; in vivo, plasma analyte after SOF + Comp I (100 mg)): 2860 ng·h/mL
- Cmax [2, 4]: 1670 ng/mL
- AUC(0-t) [2, 4]: 2850 ng·h/mL
- AUC(0-inf) [2, 5]: 1200 ng·h/mL
- Cmax [2, 5]: 964 ng/mL
- AUC(0-t) [2, 5]: 1200 ng·h/mL
- AUC increase by Compound I [2, 6]: ~2.4 fold
- Cmax increase by Compound I [2, 6]: ~1.8 fold
- Papp A→B at 120 min, 10 μM [3]: 0.25 ×10⁻⁶ cm/s
- efflux ratio at 120 min, 10 μM [3]: 43.6
- permeability through caco-2 cells (in words) ([1]; sofosbuvir alone at 10 μM, control compounds for acceptance criteria): low permeability

Compound: COC[C@H]1C[C@@H](c2ncc(-c3ccc4c(c3)COc3cc5c(ccc6nc([C@@H]7CC[C@H](C)N7C(=O)[C@@H](NC(=O)OC)C(C)C)[nH]c65)cc3-4)[nH]2)N(C(=O)[C@H](NC(=O)OC)c2ccccc2)C1 [Compound I, methyl {(2S)-1-[(2S,5S)-2-(9-{2-[(2S,4S)-1-{(2R)-2-[(methoxycarbonyl)amino]-2-phenylacetyl}-4-(methoxymethyl)pyrrolidin-2-yl]-1H-imidazol-5-yl}-1,11-dihydroisochromeno[4′,3′:6,7]naphtho[1,2-d]imidazol-2-yl)-5-methylpyrrolidin-1-yl]-3-methyl-1-oxobutan-2-yl}carbamate]
- inhibition of P-gp (P-gp): marked inhibition
- Ctau, Mean ([2]; Comp I alone): 113 ng/mL
- AUCtau, % GMR [2, 7]: 112%
- Cmax, % GMR [2, 7]: 106%
- Ctau, % GMR [2, 7]: 118%
- Ctau, Mean ([2]; SOF + Comp I): 135 ng/mL
- Cmax [2, 8]: 963 ng/mL
- AUC [2, 8]: 7690 ng·h/mL
- Cmax ([2]; plasma, oral, Compound I analyte, SOF + Comp I): 1020 ng/mL
- AUC ([2]; plasma, oral, SOF + Comp I): 8600 ng·h/mL
- inhibition of BCRP (BCRP): not on other tested transporters
- Papp of sofosbuvir, Forward, Average [1]: 0.66 10^−6 cm/s
- Papp of sofosbuvir, Forward, Repat 2 [1]: 0.6 10^−6 cm/s
- Papp of sofosbuvir, Forward, Repeat 1 [1]: 0.73 10^−6 cm/s
- Papp of sofosbuvir, Reverse, Average [1]: 7.39 10^−6 cm/s
- Papp of sofosbuvir, Reverse, Repat 2 [1]: 7.56 10^−6 cm/s
- Papp of sofosbuvir, Reverse, Repeat 1 [1]: 7.22 10^−6 cm/s
- effect of coincubation on permeability/efflux of sofosbuvir, fold increase [1]: ~4 fold

Compound: C[C@H]1O[C@@H](O[C@H]2[C@@H](O)C[C@H](O[C@H]3[C@@H](O)C[C@H](O[C@H]4CC[C@@]5(C)[C@H](CC[C@@H]6[C@@H]5C[C@@H](O)[C@]5(C)[C@@H](C7=CC(=O)OC7)CC[C@]65O)C4)O[C@@H]3C)O[C@@H]2C)C[C@H](O)[C@@H]1O [digoxin, reference compound]
- transport of control transport substrate ([1]; control): Transport was observed

More lines, now with the values ahead:

- permeability through caco-2 cells (in words) ([1]; Caco-2): indicated appropriate membrane integrity
Compound: lucifer yellow [reference compound]

- permeability through caco-2 cells (in words) ([1]; Caco-2): high permeability
Compound: CC(C)NCC(O)COc1cccc2ccccc12 (stereo not shown) [Propranolol, reference compound]

- Papp of sofosbuvir, Forward, Average [1]: 11.1 10^−6 cm/s
- Papp of sofosbuvir, Forward, Repat 2 [1]: 0.92 10^−6 cm/s
- Papp of sofosbuvir, Forward, Repeat 1 [1]: 0.46 10^−6 cm/s
- Papp of sofosbuvir, Reverse, Average [1]: 1.09 10^−6 cm/s
- Papp of sofosbuvir, Reverse, Repat 2 [1]: 11.7 10^−6 cm/s
- Papp of sofosbuvir, Reverse, Repeat 1 [1]: 10.5 10^−6 cm/s
- effect of coincubation on permeability/efflux of sofosbuvir, fold increase [1]: ~2 fold
Compound: Fc1ccccc1-c1nc2ccn(Cc3ccc(-c4ccc(C(F)(F)F)cc4C(F)(F)F)nn3)cc-2n1 [Compound V, 5-((6-(2,4-bis(trifluoromethyl)phenyl)pyridazin-3-yl)methyl)-2-(2-fluorophenyl)-5H-imidazo[4,5-c]pyridine]

- Papp of sofosbuvir, Forward, Average [1]: 0.3 10^−6 cm/s
- Papp of sofosbuvir, Forward, Repat 2 [1]: 0.28 10^−6 cm/s
- Papp of sofosbuvir, Forward, Repeat 1 [1]: 0.31 10^−6 cm/s
- Papp of sofosbuvir, Reverse, Average [1]: 6.93 10^−6 cm/s
- Papp of sofosbuvir, Reverse, Repat 2 [1]: 6.82 10^−6 cm/s
- Papp of sofosbuvir, Reverse, Repeat 1 [1]: 7.05 10^−6 cm/s
- effect of coincubation on permeability/efflux of sofosbuvir, fold increase [1]: ~2 fold
Compound: CC1=CC[C@H](C(=O)N(c2cc(C#CC(C)(C)C)sc2C(=O)O)[C@H]2CC[C@](O)(CO[C@H]3CCOC3)CC2)CC1 [Compound III, 5-(3,3-dimethylbutyn-1-yl)-3-[(cis-4-hydroxy-4-{[(3S)-tetrahydrofuran-3-yloxy]methyl}cyclohexyl) {[(1R)-4-methylcyclohex-3-en-1-yl]carbonyl}amino]thiophene-2-carboxylic acid]
